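Each compound was tested at five concentrations against cells in 96-well plates for 48 hours. The concentration for 50% growth inhibition is given as GI50.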 Activity calls are given as the source filed them. Cut-off read from the data, not from the text of the source: active = GI50 up to about 1.1 µM and inactive = higher.
Key:
Test in all cases: NCI tumour cell line growth inhibition, 48 h
[1] = tested on: 786-0
[2] = tested on: A498
[3] = tested on: A549
[4] = tested on: ACHN
[5] = tested on: CAKI-1
[6] = tested on: CCRF-CEM
[7] = tested on: COLO 205
[8] = tested on: DLD-1
[9] = tested on: DMS-114
[10] = tested on: DMS-273
[11] = tested on: EKVX
[12] = tested on: HCC 2998
[13] = tested on: HCT-116
[14] = tested on: HCT-15
[15] = tested on: HL-60
[16] = tested on: HOP-18
[17] = tested on: HOP-62
[18] = tested on: HOP-92
[19] = tested on: HT-29
[20] = tested on: IGROV-1
[21] = tested on: K562
[22] = tested on: KM-20L2
[23] = tested on: KM12
[24] = tested on: LOX IMVI
[25] = tested on: LXFL 529
[26] = tested on: M14
[27] = tested on: M19-MEL
[28] = tested on: MOLT-4
[29] = tested on: Malme-3M
[30] = tested on: NCI-H226
[31] = tested on: NCI-H23
[32] = tested on: NCI-H460
[33] = tested on: NCI-H522
[34] = tested on: OVCAR-3
[35] = tested on: OVCAR-4
[36] = tested on: OVCAR-5
[37] = tested on: OVCAR-8
[38] = tested on: RXF 393
[39] = tested on: SF-268
[40] = tested on: SF-295
[41] = tested on: SF-539
[42] = tested on: SK-MEL-28
[43] = tested on: SK-MEL-2
[44] = tested on: SK-MEL-5
[45] = tested on: SK-OV-3
[46] = tested on: SN12C
[47] = tested on: SNB-19
[48] = tested on: SNB-75
[49] = tested on: SNB-78
[50] = tested on: SW-620
[51] = tested on: TK-10
[52] = tested on: U-251
[53] = tested on: UACC-257
[54] = tested on: UACC-62
[55] = tested on: UO-31
[56] = tested on: XF498

COC(=O)C(CCCN1C(=O)c2ccccc2C1=O)C(=O)OC
GI50 [1]: > 100 µM (inactive)
GI50 [2]: > 100 µM (inactive)
GI50 [3]: > 100 µM (inactive)
GI50 [4]: > 100 µM (inactive)
GI50 [5]: > 100 µM (inactive)
GI50 [6]: > 100 µM (inactive)
GI50 [7]: > 100 µM (inactive)
GI50 [8]: > 100 µM (inactive)
GI50 [9]: > 100 µM (inactive)
GI50 [10]: > 100 µM (inactive)
GI50 [11]: > 100 µM (inactive)
GI50 [12]: > 100 µM (inactive)
GI50 [13]: > 100 µM (inactive)
GI50 [14]: > 100 µM
GI50 [15]: > 100 µM (inactive)
GI50 [16]: > 100 µM (inactive)
GI50 [17]: > 100 µM (inactive)
GI50 [18]: > 100 µM (inactive)
GI50 [19]: > 100 µM (inactive)
GI50 [20]: > 100 µM (inactive)
GI50 [21]: > 100 µM (inactive)
GI50 [22]: > 100 µM (inactive)
GI50 [23]: > 100 µM (inactive)
GI50 [24]: > 100 µM (inactive)
GI50 [25]: > 100 µM (inactive)
GI50 [26]: > 100 µM (inactive)
GI50 [27]: > 100 µM (inactive)
GI50 [28]: > 100 µM (inactive)
GI50 [29]: > 100 µM (inactive)
GI50 [30]: > 100 µM (inactive)
GI50 [31]: > 100 µM (inactive)
GI50 [32]: > 100 µM (inactive)
GI50 [33]: > 100 µM (inactive)
GI50 [34]: > 100 µM (inactive)
GI50 [35]: > 100 µM (inactive)
GI50 [36]: > 100 µM (inactive)
GI50 [37]: > 100 µM (inactive)
GI50 [38]: > 100 µM (inactive)
GI50 [39]: > 100 µM (inactive)
GI50 [40]: > 100 µM (inactive)
GI50 [41]: > 100 µM (inactive)
GI50 [42]: > 100 µM (inactive)
GI50 [43]: > 100 µM (inactive)
GI50 [44]: > 100 µM (inactive)
GI50 [45]: > 100 µM (inactive)
GI50 [46]: > 100 µM (inactive)
GI50 [47]: > 100 µM (inactive)
GI50 [48]: > 100 µM (inactive)
GI50 [49]: > 100 µM (inactive)
GI50 [50]: > 100 µM (inactive)
GI50 [51]: > 100 µM (inactive)
GI50 [52]: > 100 µM (inactive)
GI50 [53]: > 100 µM (inactive)
GI50 [54]: > 100 µM (inactive)
GI50 [55]: > 100 µM (inactive)
GI50 [56]: > 100 µM (inactive)

From ChEMBL document CHEMBL1201862, “PubChem BioAssay data set” (2004)
